# According to patent US20140148484A1, “PYRAZOLE COMPOUNDS FOR TREATING HAIRLOSS” (Boehringer Ingelheim International GmbH, priority 2012, published 2014):
# Target: T1, human CRTH2 receptor (Homo sapiens, UniProt Q9Y5Y4)
# T1 construct: host or cells: CHO-K1 (CHO-K1-hCRTH2 cells); membranes prepared in house from the purchased cell line
# T1 sequence (Q9Y5Y4 1-395): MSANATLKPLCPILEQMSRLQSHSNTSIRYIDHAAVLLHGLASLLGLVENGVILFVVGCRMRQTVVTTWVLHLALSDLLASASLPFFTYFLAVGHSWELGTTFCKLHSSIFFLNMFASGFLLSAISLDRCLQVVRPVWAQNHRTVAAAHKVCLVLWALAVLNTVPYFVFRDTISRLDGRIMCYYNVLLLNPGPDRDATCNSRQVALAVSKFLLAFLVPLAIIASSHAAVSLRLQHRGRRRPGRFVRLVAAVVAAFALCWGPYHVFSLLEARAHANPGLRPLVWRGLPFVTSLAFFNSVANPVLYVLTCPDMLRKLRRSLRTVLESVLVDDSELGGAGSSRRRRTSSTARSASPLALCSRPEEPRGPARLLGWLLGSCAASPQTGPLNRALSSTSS
# Assay: Human CRTH2 receptor membrane radioligand binding assay (SPA, [3H]-PGD2)
# Conditions: displacement of [3H]-PGD2 (1 nM) from CHO-K1-hCRTH2 cell membranes, 3 h room temperature
# Procedure: Preparation of Human CRTH2 Receptor Membranes and Radioligand Binding Assay
# The binding of CRTH2 antagonists is determined using membranes prepared from Chinese hamster ovary cells (CHO-K1 cells) transfected with the human CRTH2 receptor (CHO-K1-hCRTH2 cells, Perkin Elmer, Cat No ES-561-C). To produce cell membranes the CHO-K1-hCRTH2 cells are cultured in suspension in CHO SFMII medium supplemented with 400 μg/ml G418. The cells are harvested by centrifugation at 300 g for 10 min at room temperature. The cell pellet is resuspended in Phosphate Buffer Saline (PBS) including a protease inhibitor mix (Complete, Roche) and adjusted to a concentration of 10E7 cells/ml. The CHO-K1-hCRTH2 cells are disrupted by nitrogen […] to obtain the membrane preparation. Cell debris is removed by centrifugation (500 g at 4° C., 30 min) and the supernatant is transferred into fresh tubes followed by a second centrifugation at 40000 g for 1 h at 4° C. to sediment the membranes. The membranes are suspended in SPA incubation buffer (50 mM Tris HCl, 10 mM MgCl2, 150 mM NaCl, 1 mM EDTA, pH 7.4) without bovine serum albumin, homogenized by passing through a single use needle (Terumo, 23G×1″), and stored in aliquots at −80° C.
# The CRTH2 receptor binding assay is performed in a scintillation proximity assay (SPA) format with the radioligand [^3H]-PGD2 (Perkin Elmer, NET616000MC). CHO-K1-hCRTH2 cell membranes are again homogenized by passing through a single use needle (Terumo, 23G×1″) and diluted in SPA incubation buffer in suitable concentrations (0.5-10 μg protein/well). The SPA assay is set up in 96 well microtiter plates (Perkin Elmer, CatNo. 6005040) in SPA incubation buffer with a final volume of 200 μl per well and final concentration of 50 mM Tris-HCl, 10 mM MgCl2, 150 mM NaCl, 1 mM EDTA pH 7.4, 0.1% bovine serum albumin). The SPA assay mixture contains 60 μl of the membrane suspension, 80 μl of Wheat Germ Agglutinin coated PVT beads (GE Healthcare, RPNQ-0001, 0.3 mg/well), 40 μl of [3H]-PGD2 diluted in SPA buffer to a final concentration of 1 nM (50 000 dpm) and 20 μl of the test compound (dissolved in dimethylsulfoxid). The SPA assay mixture is incubated for 3 h at room temperature. Bound radioactivity is determined with a scintillation counter (Micro Beta Trilux, Wallac).
# The binding of [^3H]-PGD2 to CHO-K1-hCRTH2 cell membranes is determined in the absence (total binding, Bo) and presence (non-specific binding, NSB) of unlabelled PGD2 (1 μM, Cayman Chemical, Cat No 12010) or a reference CRTH2 antagonist (10 μM CAY10471, Cayman Chemical, Cat No 10006735).
# Determination of the affinity of a test compound is calculated by subtraction of the non-specific binding (NSB) from the total binding (Bo) or the binding in the presence of the test compound (B) at a given compound concentration. […] The Bo−NSB value is set to 0% inhibition.
row,Compound,Ki [nM]
1,CCc1nn(Cc2ccc(NC(=O)c3ccc(Cl)cc3Br)cc2)c(CC)c1CC(=O)O [Example 2.24],2.8
2,CCc1nn(Cc2ccc(NC(=O)c3cccc(C)c3Br)cc2)c(CC)c1CC(=O)O [Example 2.25],46.6
3,CCc1nn(Cc2ccc(NC(=O)c3ccc4ccccc4c3Br)cc2)c(CC)c1CC(=O)O [Example 2.26],3.6
4,CCCc1c(C)cccc1C(=O)Nc1ccc(Cn2nc(CC)c(CC(=O)O)c2CC)cc1 [Example 2.27],4.3
5,CCc1nn(Cc2ccc(NC(=O)c3cccc(C)c3CC(C)C)cc2)c(CC)c1CC(=O)O [Example 2.28],17.1
6,CCc1nn(Cc2ccc(NC(=O)c3ccccc3C3CCCCC3)cc2)c(CC)c1CC(=O)O [Example 2.29],6.3
7,CCc1nn(Cc2ccc(NC(=O)C(C)(C)C)cc2)c(CC)c1CC(=O)O [Example 2.30],5.8
8,CCc1nn(Cc2ccc(NC(=O)C3CCC3)cc2)c(CC)c1CC(=O)O [Example 2.31],5
9,CCc1nn(Cc2ccc(NC(=O)C3CCCC3)cc2)c(CC)c1CC(=O)O [Example 2.32],2.6
10,CCc1nn(Cc2ccc(NC(=O)C3[C@H]4C[C@@H]5C[C@@H](C[C@H]3C5)C4)cc2)c(CC)c1CC(=O)O (stereo partly shown) [Example 2.33],0.8
11,CCc1nn(Cc2ccc(NC(=O)C(C)C)cc2)c(CC)c1CC(=O)O [Example 2.34],4.3
12,CCc1nn(Cc2ccc(NC(=O)c3ccccc3C3CC3)cc2)c(CC)c1CC(=O)O [Example 2.35],11.6
13,O=C(O)Cc1c(-c2ccccc2)nn(Cc2ccc(NC(=O)c3ccc(Cl)cc3)cc2)c1-c1ccccc1 [Example 2.43],17.4
14,O=C(O)Cc1c(-c2ccccc2)nn(Cc2ccc(NC(=O)c3ccc4ccccc4c3)cc2)c1-c1ccccc1 [Example 2.44],10.2
15,O=C(O)Cc1c(-c2ccccc2)nn(Cc2ccc(NC(=O)c3ccc(C(F)(F)F)cc3)cc2)c1-c1ccccc1 [Example 2.45],8.9
16,CCc1c(CC(=O)O)c(C2CC2)nn1Cc1ccc(NC(=O)c2ccc(Cl)cc2C)cc1 [Example 2.46],0.6
17,CCc1c(CC(=O)O)c(C2CC2)nn1Cc1ccc(NC(=O)c2ccc(C(F)(F)F)cc2)cc1 [Example 2.47],0.1
18,CCc1nn(Cc2ccc(NC(=O)c3cccc4ccccc34)cc2)c(C2CC2)c1CC(=O)O [Example 2.48],1.8
19,CCc1nn(Cc2ccc(NC(=O)c3ccc(Cl)cc3C)cc2)c(C2CC2)c1CC(=O)O [Example 2.49],0.6
20,CCc1nn(Cc2ccc(NC(=O)c3ccc(C(F)(F)F)cc3)cc2)c(C2CC2)c1CC(=O)O [Example 2.50],0.1
21,CCc1c(CC(=O)O)c(C2CC2)nn1Cc1ccc(NC(=O)c2cccc3ccccc23)cc1 [Example 2.51],3.5
22,CCc1c(CC(=O)O)c(C)nn1Cc1ccc(NC(=O)c2ccc(C(F)(F)F)cc2)cc1 [Example 2.52],0.5
23,CCc1nn(Cc2ccc(NC(=O)c3ccc(C(F)(F)F)cc3)cc2)c(C)c1CC(=O)O [Example 2.53],0.2
24,Cc1c(CC(=O)O)cnn1Cc1ccc(NC(=O)c2ccc3ccccc3c2)cc1 [Example 2.55],21.6
25,Cc1c(CC(=O)O)cnn1Cc1ccc(NC(=O)c2ccc(Cl)c(Cl)c2)cc1 [Example 2.56],27.8
26,Cc1nn(Cc2ccc(NC(=O)c3ccc4ccccc4c3)cc2)cc1CC(=O)O [Example 2.57],19.3
27,Cc1c(CC(=O)O)cnn1Cc1ccc(NC(=O)c2ccc3ccccc3c2)cc1 [Example 2.58],24.6
28,CCc1c(CC(=O)O)cnn1Cc1ccc(NC(=O)c2ccc3ccccc3c2)cc1 [Example 2.59],17.4
29,COc1c(CC(=O)O)c(C)nn1Cc1ccc(NC(=O)c2ccc3ccccc3c2)cc1 [Example 2.60],4.2

# The next lines start with the values.
row,Ki [nM],Compound
1,3.8,Cc1nn(Cc2ccc(NC(=O)OCc3ccccc3)cc2)c(C)c1CC(=O)O [Example 3.1]
2,786,Cc1nn(Cc2ccc(NC(=O)OCc3ccccc3)cc2)c(C)c1CCC(=O)O [Example 3.2]
3,0.3,CCc1nn(Cc2ccc(NC(=O)OCc3ccccc3)cc2)c(CC)c1CC(=O)O [Example 3.3]
4,0.5,Cc1nn(Cc2ccc(NC(=O)OCc3ccc(Cl)c(Cl)c3)cc2)c(C)c1CC(=O)O [Example 3.4]
5,16.8,Cc1nn(Cc2ccc(NC(=O)OCc3ccccc3Cl)cc2)c(C)c1CC(=O)O [Example 3.5]
6,14.9,Cc1nn(Cc2ccc(NC(=O)OCc3ccccc3Br)cc2)c(C)c1CC(=O)O [Example 3.6]
7,0.6,Cc1nn(Cc2ccc(NC(=O)OCc3ccc4ccccc4c3)cc2)c(C)c1CC(=O)O [Example 3.7]
8,28.6,Cc1nn(Cc2ccc(NC(=O)OC(C)(C)C)cc2)c(C)c1CC(=O)O [Example 3.8]
9,0.1,CCc1nn(Cc2ccc(NC(=O)OCc3ccc(Cl)c(Cl)c3)cc2)c(CC)c1CC(=O)O [Example 3.9]
10,5.2,CCc1nn(Cc2ccc(NC(=O)OCc3ccccc3Cl)cc2)c(CC)c1CC(=O)O [Example 3.10]
11,3.5,CCc1nn(Cc2ccc(NC(=O)OCc3ccccc3Br)cc2)c(CC)c1CC(=O)O [Example 3.11]
12,0.1,CCc1nn(Cc2ccc(NC(=O)OCc3ccc4ccccc4c3)cc2)c(CC)c1CC(=O)O [Example 3.12]
13,4.7,Cc1nn(Cc2ccc(NC(=O)OCc3ccccc3)cc2Cl)c(C)c1CC(=O)O [Example 3.13]
14,8.9,Cc1nn(Cc2ccc(NC(=O)OCc3ccccc3)cc2F)c(C)c1CC(=O)O [Example 3.14]
15,16.8,Cc1nn(Cc2ccc(NC(=O)NCc3ccccc3)cc2)c(C)c1CC(=O)O [Example 4.1]
16,43.9,Cc1nn(Cc2ccc(NS(=O)(=O)c3ccccc3)cc2)c(C)c1CC(=O)O [Example 5.1]
17,33.7,Cc1nn(Cc2ccc(NS(=O)(=O)c3ccc(Cl)cc3)cc2)c(C)c1CC(=O)O [Example 5.2]
18,30.6,Cc1nn(Cc2ccc(NS(=O)(=O)c3ccc(Cl)c(Cl)c3)cc2)c(C)c1CC(=O)O [Example 5.3]
19,230,Cc1nn(Cc2ccc(NS(=O)(=O)c3ccc(C(F)(F)F)cc3)cc2)c(C)c1CC(=O)O [Example 5.4]
20,438,Cc1nn(Cc2ccc(NCc3ccc(Cl)cc3)cc2)c(C)c1CC(=O)O [Example 6.1]
21,311,Cc1nn(Cc2ccc(NCc3ccccc3)cc2)c(C)c1CC(=O)O [Example 6.2]
22,261,Cc1nn(Cc2ccc(NCc3ccc(C(F)(F)F)cc3)cc2)c(C)c1CC(=O)O [Example 6.3]
23,407,Cc1cc(Cn2nc(C)c(CC(=O)O)c2C)ccc1NC(=O)c1ccccc1 [Example 7.1]
24,162,Cc1cc(Cn2nc(C)c(CC(=O)O)c2C)ccc1NC(=O)c1ccc(Cl)cc1 [Example 7.2]
25,13.5,Cc1cc(Cn2nc(C)c(CC(=O)O)c2C)ccc1NC(=O)c1ccc(C(F)(F)F)cc1 [Example 7.3]
26,2.2,Cc1cc(Cn2nc(C)c(CC(=O)O)c2C)ccc1NC(=O)c1ccc(Cl)c(Cl)c1 [Example 7.4]
27,0.3,Cc1cc(NC(=O)c2ccc3ccccc3c2)ccc1Cn1nc(C)c(CC(=O)O)c1C [Example 7.5]
28,1.2,Cc1nn(Cc2ccc(NC(=O)c3ccc(Cl)cc3)cc2Cl)c(C)c1CC(=O)O [Example 7.6]
29,3.4,Cc1cc(Cl)ccc1C(=O)Nc1ccc(Cn2nc(C)c(CC(=O)O)c2C)c(Cl)c1 [Example 7.7]
